Tested on: rabbit ventricular myocytes
Test: Two-dimensional gel electrophoresis proteomic analysis of protein modifications in pharmacologically preconditioned isolated ventricular myocytes
Assay type: cell-based
Details: 100 μmol/L, 60 minutes, 37° C.; for level of ADP ribosyl hydrolase: drug treated extracts relative to matching control extracts
Description: Protein modifications occurring during preconditioning were identified by a multi-tiered two-dimensional gel electrophoresis approach (see FIG. 3) and subsequent analysis of the cytoplasmic and TFA extracts of adenosine and diazoxide-treated isolated cardiomyocytes (n=4) at concentrations capable of invoking preconditioning. […] The modified proteins identified herein are referred to as preconditioning proteins. Ventricular myocytes from New Zealand White rabbits (weighing 1 to 2 kg) were isolated by collagenase dissociation, as described previously by Liu et al. (Circ. Res. 1996 78:443–454). Hearts were excised, then perfused with collagenase (1.0 mg/mL, Worthington type II) for 14 minutes at a maintained perfusion pressure of 75 mm Hg on a Langendorff apparatus, yielding>50% Ca^2+-tolerant ventricular myocytes. Cell isolation was followed directly by pharmacological preconditioning, which was carried out by treatment with 100 μmol/L adenosine (Sigma) or with 100 μmol/L diazoxide (Sigma) for 60 minutes in a 37° C. water bath, as described previously by Liu et al. supra. Untreated cells were prepared concurrently as drug-free controls. Equivalent 25 μL aliquots of cells (containing ˜30 mg/mL of protein as determined by Lowry assay (Lowry, O. H. J. Biol. Chem. 1951 193:265–275) were frozen and stored at −80° C. until analysis. All steps in this Protein extraction protocol, referred to herein as “In Sequence” and depicted in FIG. 3, produce physiological pH (cytosolic) and acidic pH enriched extracts were carried out at 4° C., and all centrifugations were conducted at 16000×g for 2 minutes at 4° C. Myocyte proteins were first extracted by two rounds of homogenization in 100 μL of HEPES extraction buffer, consisting of (in mmol/L) HEPES 25 (pH 7.4), NaF 50, Na3VO4 0.25, phenylmethylsulfonyl fluoride 0.25, EDTA 0.5, and (in μmol/L) leupeptin 1.25, pepstatin A 1.25. Following homogenization and centrifugation, the supernatants were pooled and saved as the cytosolic extract. The remaining pellet was subjected to further extraction by two rounds of homogenization in 50 μL of acid extraction buffer, consisting of 1% v/v trifluoroacetic acid (TFA) and 1 mmol/L Tris(2-carboxyethylphosphine)hydrochloride (pH ˜2.0). Supernatants were again pooled, and saved as the acid extract. The two extracts and remaining pellet were frozen and stored at −80° C. Isoelectric focusing (IEF) of cytosolic and TFA extracts were carried out using a Protean® IEF cell (Bio-Rad) according to the manufacturer's protocol. Protein loads ranging from 5 up to 250 μg per gel were added to the following rehydration buffers: for cytosolic extracts, 8 M urea, 2.5 M thiourea, 4% CHAPS, 2 mM EDTA, and 25 mM DTT, and in the case of pH 6–9 strips, CHAPS and DTT were substituted by 4% ASB-14 and 5.4% (w/v) 2-hydroxyethyl disulfide, respectively; for acidic extracts, 8 M urea, 4% CHAPS, and 25 mM DTT. Immobilized pH gradient (IPG) Ready Strips™ (170 mm pH 4–7, 6–9, or 3–10 linear gradient, Bio-Rad) were actively rehydrated at 50 volts (V) for 10 hours to enhance protein uptake, then subjected to the following conditions using a rapid voltage ramping method: 100 V for 25 Volt-hours (Vh), 500 V for 125 Vh, 1000 V for 250 Vh, and 8000 V for 65 kVh. A Peltier temperature control platform maintained gels at 20° C. throughout IEF. Focused gels were stored at −20° C. prior to sodium dodecyl sulfate-polyacrylamide gel electrophoresis (SDS-PAGE). For SDS-PAGE, IPG strips were incubated for 10 minutes in equilibration buffer (50 mmol/L Tris-HCl, pH 8.8, 6 mol/L urea, 30% v/v glycerol, 2% w/v SDS) supplemented with 10 mg/mL DTT, followed by a 10 minute incubation in equilibration buffer supplemented with 25 mg/mL iodoacetamide, then rinsed once with SDS-PAGE buffer (25 mmol/L Tris, 192 mmol/L glycine, pH 8.3, 0.1% w/v SDS). IEF strips were then embedded in a 5% acrylamide stacking gel and the proteins were resolved by 10 or 12.5% SDS-PAGE using a Protean® II XL system (Bio-Rad). […]

[1] = 2-D gels vs untreated control myocytes, n=4

SMILES | level of 24 kDa subunit (mitochondrial precursor) of Complex I [1] | level of 30 kDa subunit (mitochondrial precursor) of Complex I [1] | level of HSP27 [1] | level of NG-dimethylarginine dimethylaminohydrolase (DDAH) [1] | level of RNA binding protein regulatory subunit (DJ-1) [1] | level of aldehyde dehydrogenase [1] | level of core protein I of Complex III [1] | level of isocitrate dehydrogenase NAD+ specific subunit alpha (IDH) [1] | level of metaxin 2 [1] | level of prohibitin [1] | level of succinyl CoA ligase [ADP forming] beta chain [1] | level of δ chain (mitochondrial precursor) of the F1 portion of Complex V [1] | extent of post-translational modification of the β chain of F1 portion (mitochondrial precursor) of Complex V (2-D gels, silver stain or western blot, vs control, two additional more acidic spots) | level of ADP ribosyl hydrolase | level of 23 kDa subunit (mitochondrial precursor) of Complex I [1] | level of d chain (mitochondrial precursor) of the F0 portion of Complex V [1] | level of dihydrolipoamide succinyltransferase [1] | post-translational modification of protein X (E3 binding protein of the pyruvate dehydrogenase complex) [1] | sarcalumenin (58 kDa isoform) levels (HEPES extract, 2-D gels vs untreated control myocytes)
Nc1ncnc2c1ncn2[C@@H]1O[C@H](CO)[C@@H](O)[C@H]1O [adenosine] | increases | increases | did not, however, observe a change | decreases | increased | increased | decreased | increase | reduced | increase | increase | increases | increase | increased | – | – | – | – | –
CC1=NS(=O)(=O)c2cc(Cl)ccc2N1 [diazoxide] | increased | increased | increase | increased | increased | increased | decreased | increases | reduced | – | – | increased | – | increased | increased | increased | decrease | increases | decrease

Reference: patent US7195890B2, “Methods and compositions for modulating proteins modified in preconditioning against ischemia/hypoxia” (Queen's University at Kingston, priority 2003, dated 2007)
